# In ChEMBL document CHEMBL1909511, “Inhalation by design: novel tertiary amine muscarinic M₃ receptor antagonists with slow off-rate binding kinetics for inhaled once-daily treatment of chronic obstructive pulmonary disease” (J Med Chem, 2011):
# What was measured:
# [1] = biological target: T1, Muscarinic acetylcholine receptor M3 (Homo sapiens, UniProt P20309); assay: Antagonist activity at human recombinant M3 receptor expressed in CHO-K1 cells assessed as inhibition of carbamoyl choline-induced calcium currents after 4 hrs by fluorimetry; type: functional, cell-based
# Target sequence in this assay (P20309 whole entry): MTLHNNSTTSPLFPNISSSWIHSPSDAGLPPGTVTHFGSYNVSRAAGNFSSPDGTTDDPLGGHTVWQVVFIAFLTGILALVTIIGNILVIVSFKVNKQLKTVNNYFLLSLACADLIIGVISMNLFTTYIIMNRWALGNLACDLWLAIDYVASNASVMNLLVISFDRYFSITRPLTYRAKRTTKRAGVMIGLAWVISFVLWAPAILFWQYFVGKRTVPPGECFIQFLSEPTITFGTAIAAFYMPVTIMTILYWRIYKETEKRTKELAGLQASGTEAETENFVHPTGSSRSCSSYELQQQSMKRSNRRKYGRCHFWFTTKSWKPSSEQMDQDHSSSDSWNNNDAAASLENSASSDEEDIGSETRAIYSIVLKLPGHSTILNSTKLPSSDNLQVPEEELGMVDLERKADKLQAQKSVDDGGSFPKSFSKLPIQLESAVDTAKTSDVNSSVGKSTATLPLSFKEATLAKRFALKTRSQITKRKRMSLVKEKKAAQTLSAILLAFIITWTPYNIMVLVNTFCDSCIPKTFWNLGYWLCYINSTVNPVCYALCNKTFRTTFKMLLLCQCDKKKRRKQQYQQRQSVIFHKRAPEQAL
# [2] = Intrinsic clearance in human liver microsomes assessed per mg of protein in presence of NADPH
# [3] = biological target: T1, Muscarinic acetylcholine receptor M3; assay: Displacement of [3H]-NMS from human recombinant M3 receptor expressed in CHO cells after 2 hrs by filter binding assay; type: cell-based
# Target sequence in this assay (P20309 whole entry): as above
# [4] = biological target: T1, Muscarinic acetylcholine receptor M3; conditions: CHO
# Target sequence in this assay (P20309 whole entry, looked up): as the sequence (P20309 whole entry) above
# [5] = biological target: T2, Muscarinic acetylcholine receptor M2 (Homo sapiens, UniProt P08172); assay: Displacement of [3H]-NMS from human recombinant M2 receptor expressed in CHO cells after 2 hrs by filter binding assay; type: cell-based
# T2 sequence (P08172 whole entry): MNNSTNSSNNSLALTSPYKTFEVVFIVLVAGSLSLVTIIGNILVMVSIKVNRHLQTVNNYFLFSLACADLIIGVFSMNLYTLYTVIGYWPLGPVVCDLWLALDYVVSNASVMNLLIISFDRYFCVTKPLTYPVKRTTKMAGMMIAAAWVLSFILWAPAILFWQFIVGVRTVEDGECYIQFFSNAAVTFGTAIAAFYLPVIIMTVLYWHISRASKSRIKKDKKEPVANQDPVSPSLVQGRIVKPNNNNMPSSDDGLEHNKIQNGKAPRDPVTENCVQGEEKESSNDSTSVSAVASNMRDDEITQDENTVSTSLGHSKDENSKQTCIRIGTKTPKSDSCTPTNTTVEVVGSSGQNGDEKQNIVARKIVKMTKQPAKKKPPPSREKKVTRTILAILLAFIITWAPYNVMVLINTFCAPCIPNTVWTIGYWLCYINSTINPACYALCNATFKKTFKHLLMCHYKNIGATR
# [6] = Intrinsic clearance in human liver microsomes assessed per mg of protein by glucuronidation assay in presence of Brijj-58 and UDPGA
# [7] = Intrinsic clearance in human hepatocytes assessed per million cells
# [8] = Apparent permeability across apical to basolateral side in human Caco2 cells; type: ADME, cell-based; conditions: Caco-2
# [9] = Apparent permeability across basolateral to apical side in human Caco2 cells; type: ADME, cell-based; conditions: Caco-2
# Cavia porcellus = assay: Bronchodilator activity in Dunkin-Hartley guinea pig assessed as inhibition of […] lung resistance after cumulative intratracheal administration in micelle solution at hourly intervals challenged each time 1 hr later with methacholine; type: functional, organism-based
# [10] = biological target: Muscarinic acetylcholine receptor M3 (Cavia porcellus) (UniProt Q8VH26); assay: Antagonist activity at M3 receptor in Dunkin-Hartley guinea pig tracheal strips assessed as time taken for electrically field-stimulated contractile response to recover by 25 percent of inhibition at Emax after 2 hrs; type: functional
# Chain of Muscarinic acetylcholine receptor M3 (Cavia porcellus) (Q8VH26 1-587): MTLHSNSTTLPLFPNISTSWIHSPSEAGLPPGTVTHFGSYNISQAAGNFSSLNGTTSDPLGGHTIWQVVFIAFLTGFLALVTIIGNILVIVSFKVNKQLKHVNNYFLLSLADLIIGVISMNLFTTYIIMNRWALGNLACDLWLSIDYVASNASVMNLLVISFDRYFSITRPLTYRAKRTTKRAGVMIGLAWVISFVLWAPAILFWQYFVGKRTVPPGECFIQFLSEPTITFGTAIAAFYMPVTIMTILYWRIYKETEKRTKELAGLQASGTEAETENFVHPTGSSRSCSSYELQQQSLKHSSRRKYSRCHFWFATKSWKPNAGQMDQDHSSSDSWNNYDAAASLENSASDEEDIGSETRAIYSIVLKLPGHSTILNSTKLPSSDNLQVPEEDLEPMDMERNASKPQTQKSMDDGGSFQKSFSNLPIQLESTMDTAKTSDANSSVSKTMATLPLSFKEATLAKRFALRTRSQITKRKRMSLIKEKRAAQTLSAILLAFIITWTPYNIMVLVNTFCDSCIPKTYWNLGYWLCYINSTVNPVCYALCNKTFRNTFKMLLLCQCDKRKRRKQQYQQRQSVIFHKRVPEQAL
# [11] = biological target: Muscarinic acetylcholine receptor M3 (Cavia porcellus, UniProt Q8VH26); assay: Antagonist activity at M3 receptor in Dunkin-Hartley guinea pig tracheal strips assessed as inhibition of electrically field-stimulated contractile response after 8 hrs; type: functional
# Chain of Muscarinic acetylcholine receptor M3 (Cavia porcellus, UniProt Q8VH26) (Q8VH26 whole entry): as the sequence (Q8VH26 1-587) above
# Canis familiaris [12] = assay: Bronchodilator activity in Beagle dog assessed as inhibition of methacholine-induced lung resistance after cumulative intratracheal administration in micelle solution at hourly intervals challenged each time 1 hr later with methacholine; type: functional, Canis lupus familiaris
# [13] = biological target: T1, Muscarinic acetylcholine receptor M3
# Target sequence in this assay (P20309 whole entry, looked up): as the sequence (P20309 whole entry) above
# Description: Displacement of radioligand from M3 receptor assessed as dissociation half life
# [14] = biological target: T3, Muscarinic acetylcholine receptor M5 (Homo sapiens, UniProt P08912); assay: Displacement of [3H]-NMS from human recombinant M5 receptor expressed in CHO cells after 24 hrs by filter binding assay; type: cell-based
# T3 sequence (P08912 whole entry): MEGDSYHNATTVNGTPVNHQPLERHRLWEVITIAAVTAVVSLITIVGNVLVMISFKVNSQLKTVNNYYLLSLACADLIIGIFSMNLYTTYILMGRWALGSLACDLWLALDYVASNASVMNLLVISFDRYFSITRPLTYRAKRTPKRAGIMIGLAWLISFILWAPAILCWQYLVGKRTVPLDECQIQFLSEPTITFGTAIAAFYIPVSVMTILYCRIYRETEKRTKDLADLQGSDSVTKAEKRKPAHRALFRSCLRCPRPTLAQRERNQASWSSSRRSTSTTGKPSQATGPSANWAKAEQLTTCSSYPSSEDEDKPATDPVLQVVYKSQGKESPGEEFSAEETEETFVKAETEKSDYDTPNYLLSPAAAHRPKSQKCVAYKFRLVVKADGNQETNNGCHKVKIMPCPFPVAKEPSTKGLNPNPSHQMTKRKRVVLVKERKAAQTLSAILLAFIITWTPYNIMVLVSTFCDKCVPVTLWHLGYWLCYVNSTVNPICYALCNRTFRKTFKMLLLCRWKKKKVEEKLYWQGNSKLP
# [15] = biological target: T4, Muscarinic acetylcholine receptor M2 (Homo sapiens) (UniProt P08172); assay: Displacement of [3H]-NMS from human recombinant M2 receptor expressed in CHO cells assessed as dissociation half life at 100 fold human M2 receptor binding Ki concentration after 24 hrs by dilution-offset filter binding assay; type: cell-based
# T4 sequence (whole entry): T2 sequence (P08172 whole entry)
# [16] = biological target: T5, Muscarinic acetylcholine receptor M4 (Homo sapiens) (UniProt P08173); assay: Displacement of [3H]-NMS from human recombinant M4 receptor expressed in CHO cells assessed as dissociation half life at 100 fold human M4 receptor binding Ki concentration after 24 hrs by dilution-offset filter binding assay; type: cell-based
# T5 sequence (whole entry): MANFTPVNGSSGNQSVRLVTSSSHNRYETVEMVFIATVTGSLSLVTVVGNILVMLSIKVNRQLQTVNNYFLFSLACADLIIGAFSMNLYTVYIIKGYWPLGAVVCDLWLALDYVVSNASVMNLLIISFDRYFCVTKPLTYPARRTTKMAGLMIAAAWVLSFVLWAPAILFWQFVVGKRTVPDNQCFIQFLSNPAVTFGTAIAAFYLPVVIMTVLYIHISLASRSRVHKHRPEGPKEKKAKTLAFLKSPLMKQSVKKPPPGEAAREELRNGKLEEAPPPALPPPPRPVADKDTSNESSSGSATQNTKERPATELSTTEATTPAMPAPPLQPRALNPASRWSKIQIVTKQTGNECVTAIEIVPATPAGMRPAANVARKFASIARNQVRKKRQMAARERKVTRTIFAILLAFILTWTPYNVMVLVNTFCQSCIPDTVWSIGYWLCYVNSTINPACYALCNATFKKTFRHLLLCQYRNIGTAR
# [17] = biological target: T6, Muscarinic acetylcholine receptor M1 (Homo sapiens) (UniProt P11229); assay: Displacement of [3H]-NMS from human recombinant M1 receptor expressed in CHO cells assessed as dissociation half life at 100 fold human M1 receptor binding Ki concentration after 24 hrs by dilution-offset filter binding assay; type: cell-based
# T6 sequence (whole entry): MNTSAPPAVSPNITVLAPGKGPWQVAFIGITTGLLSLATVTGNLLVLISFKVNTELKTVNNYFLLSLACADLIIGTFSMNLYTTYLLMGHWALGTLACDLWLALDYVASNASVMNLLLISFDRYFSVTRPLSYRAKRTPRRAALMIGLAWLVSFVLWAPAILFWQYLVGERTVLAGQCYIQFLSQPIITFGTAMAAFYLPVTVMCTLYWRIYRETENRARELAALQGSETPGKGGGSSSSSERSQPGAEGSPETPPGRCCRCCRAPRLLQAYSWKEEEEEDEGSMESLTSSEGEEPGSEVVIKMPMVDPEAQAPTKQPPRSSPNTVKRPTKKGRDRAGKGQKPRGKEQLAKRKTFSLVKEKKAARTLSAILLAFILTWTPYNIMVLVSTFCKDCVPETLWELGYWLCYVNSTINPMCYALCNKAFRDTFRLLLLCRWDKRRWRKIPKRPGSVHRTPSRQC
# [18] = biological target: T1, Muscarinic acetylcholine receptor M3; conditions: CHO; remark: listed apart in the source
# Target sequence in this assay (P20309 whole entry, looked up): as the sequence (P20309 whole entry) above
# Canis familiaris [19] = assay: Bronchodilator activity in methacholine challenged Beagle dog assessed as intrinsic duration of action at 10 ug intratracheally administered as single dose in micelle solution; type: functional, Canis lupus familiaris
# [20] = biological target: T1, Muscarinic acetylcholine receptor M3; remark: listed apart in the source
# Target sequence in this assay (P20309 whole entry, looked up): as the sequence (P20309 whole entry) above
# [21] = biological target: T7, Muscarinic acetylcholine receptor M5 (Homo sapiens) (UniProt P08912); assay: Displacement of [3H]-NMS from human recombinant M5 receptor expressed in CHO cells assessed as dissociation half life at 100 fold human M5 receptor binding Ki concentration after 24 hrs by dilution-offset filter binding assay; type: cell-based
# T7 sequence (whole entry): T3 sequence (P08912 whole entry)
# [22] = biological target: T8, Muscarinic acetylcholine receptor M4 (Homo sapiens, UniProt P08173); assay: Displacement of [3H]-NMS from human recombinant M4 receptor expressed in CHO cells after 24 hrs by filter binding assay; type: cell-based
# T8 sequence (P08173 whole entry): T5 sequence (whole entry)
compound,measurement,setting,value
CC(C)(CCC(C(N)=O)(c1ccccc1)c1ccccc1)N1CC(Oc2ccccc2O)C1,Ki,[1],11 nM
CC(C)(CCC(C(N)=O)(c1ccccc1)c1ccccc1)N1CC(Oc2ccccc2)C1,microsomal CLint,[2],> 440 µL/min/mg
same,Ki,[3],0.11 nM
same,T1/2,[4],8.02 h
same,Ki,[5],0.056 nM
CC(C)(CCC(C(N)=O)(c1ccccc1)c1ccccc1)N1CC[C@H](Oc2ccc(Cl)c(O)c2)C1,Ki,[1],2 nM
same,T1/2,[4],13.4 h
CC(C)(CCC(C(N)=O)(c1ccccc1)c1ccccc1)N1CCC(Oc2ccccc2)CC1,Ki,[3],3.9 nM
same,T1/2,[4],17.5 h
same,Ki,[5],2.6 nM
CC(C)(CCC(C(N)=O)(c1ccccc1)c1ccccc1)N1CC(Oc2cc(O)cc(F)c2)C1,microsomal CLint,[2],176 µL/min/mg
same,microsomal CLint,[6],403 µL/min/mg
CC(C)(CCC(C(N)=O)(c1ccccc1)c1ccccc1)N1CC(OCc2cccc(O)c2)C1,microsomal CLint,[2],364 µL/min/mg
same,Ki,[1],0.18 nM
same,hepatocyte CLint,[7],34 µL/min/1e6 cells
same,T1/2,[4],20.7 h
same,microsomal CLint,[6],13 µL/min/mg
CC(C)(CCC(C(N)=O)(c1ccccc1)c1ccccc1)N1CC(Oc2ccc(Cl)c(O)c2)C1,microsomal CLint,[2],116 µL/min/mg
same,Ki,[1],1.9 nM
same,hepatocyte CLint,[7],159 µL/min/1e6 cells
same,T1/2,[4],23.5 h
same,microsomal CLint,[6],430 µL/min/mg
CC(C)(CCC(C(N)=O)(c1ccccc1)c1ccccc1)N1CC[C@H](Oc2ccc(O)cc2)C1,Ki,[1],0.76 nM
same,T1/2,[4],3.82 h
CC(C)(CCC(C(N)=O)(c1ccccc1)c1ccccc1)N1CC[C@@H](Oc2ccccc2)C1,Ki,[3],6.4 nM
same,Ki,[1],1.6 nM
same,T1/2,[4],> 24 h
same,Ki,[5],12 nM
CC(C)(CCC(C(N)=O)(c1ccccc1)c1ccccc1)N1CC[C@H](Oc2ccccc2)C1,Ki,[3],1.8 nM
same,Papp A→B,[8],16 ×10⁻⁶ cm/s
same,Ki,[1],0.25 nM
same,T1/2,[4],> 24 h
same,Papp B→A,[9],13 ×10⁻⁶ cm/s
same,Ki,[5],1.6 nM
CC(C)(CCC(C(N)=O)(c1ccccc1)c1ccccc1)N1CC(Oc2cccc(O)c2F)C1,ED50,Cavia porcellus,4 µg
same,TIME,[10],> 16 h
same,IC50,[11],3.48 nM
NC(=O)C(CCCN1CC[C@H](Oc2ccccc2)C1)(c1ccccc1)c1ccccc1,Ki,[3],1.9 nM
same,Ki,[1],2.4 nM
same,T1/2,[4],0.633 h
same,Ki,[5],15 nM
CC(C)(CCC(C(N)=O)(c1ccccc1)c1ccccc1)N1CC[C@@H](Oc2cccc(O)c2)C1,ED50,Cavia porcellus,20 µg
same,TIME,[10],> 16 h
same,IC50,[11],3.87 nM
CC(C)[N+]1(C)C2CCC1CC(OC(=O)C(CO)c1ccccc1)C2.O.[Br-] (stereo not given),TIME,[10],1.47 h
same,ID50,Canis familiaris [12],10 µg
CC(C)(CCC(C(N)=O)(c1ccccc1)c1ccccc1)N1CC[C@@H](Oc2cc(O)cc(F)c2)C1,microsomal CLint,[2],> 440 µL/min/mg
same,Ki,[1],0.56 nM
same,hepatocyte CLint,[7],114 µL/min/1e6 cells
same,T1/2,[4],> 24 h
C[N+]1(C)[C@@H]2C[C@@H](OC(=O)C(O)(c3cccs3)c3cccs3)C[C@H]1[C@@H]1O[C@@H]12.O.[Br-] [TIOTROPIUM BROMIDE],T1/2,[13],9.45 h
same,Ki,[14],0.0266 nM
same,T1/2,[4],> 24 h
same,T1/2,[15],> 13 h
same,T1/2,[16],> 24 h
same,T1/2,[17],> 23.8 h
same,T1/2,[18],> 22.8 h
same,TIME,[10],> 12.9 h
same,ID50,Canis familiaris [12],3 µg
same,Time,Canis familiaris [19],32 h
same,pKb,[20],10.2
same,T1/2,[21],> 24 h
same,Ki,[22],0.0078 nM
CC(C)(CCC(C(N)=O)(c1ccccc1)c1ccccc1)N1CC[C@H](Oc2cccc(O)c2)C1,ED50,Cavia porcellus,10 µg
same,TIME,[10],> 16 h
same,IC50,[11],4.3 nM
CC(C)(CCC(C(N)=O)(c1ccccc1)c1ccccc1)N1CC(Oc2cc(O)cc(Cl)c2)C1,microsomal CLint,[2],361 µL/min/mg
same,Ki,[1],0.22 nM
same,hepatocyte CLint,[7],116 µL/min/1e6 cells
same,microsomal CLint,[6],223 µL/min/mg
